{
  "source": "patent US20070254941A1",
  "about": "“Subtantially pure ropinirole hydrochloride, polymorphic form of ropinirole and process for their preparation” (Glenmark Pharmaceuticals Limited, priority 2006, published 2007)",
  "origin": "cited, not measured here",
  "key": {"[1]": {"target": "D2 dopamine receptor (Homo sapiens, UniProt P14416)", "sequence (P14416 whole entry)": "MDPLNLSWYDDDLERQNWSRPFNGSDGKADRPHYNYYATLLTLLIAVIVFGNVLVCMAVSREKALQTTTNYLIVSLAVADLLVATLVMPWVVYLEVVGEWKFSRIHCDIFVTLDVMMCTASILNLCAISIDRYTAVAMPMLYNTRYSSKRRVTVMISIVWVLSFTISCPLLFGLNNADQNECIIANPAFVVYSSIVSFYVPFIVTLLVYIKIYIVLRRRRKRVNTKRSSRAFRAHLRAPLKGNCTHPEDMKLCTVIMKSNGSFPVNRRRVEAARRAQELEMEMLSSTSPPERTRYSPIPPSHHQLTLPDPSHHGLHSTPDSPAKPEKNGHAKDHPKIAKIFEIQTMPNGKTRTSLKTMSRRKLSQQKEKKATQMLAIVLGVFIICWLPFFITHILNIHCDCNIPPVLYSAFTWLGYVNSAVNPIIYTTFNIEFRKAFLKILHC"}, "[2]": {"target": "T1, D3 dopamine receptor (Homo sapiens, UniProt P35462)", "T1 sequence (P35462 whole entry)": "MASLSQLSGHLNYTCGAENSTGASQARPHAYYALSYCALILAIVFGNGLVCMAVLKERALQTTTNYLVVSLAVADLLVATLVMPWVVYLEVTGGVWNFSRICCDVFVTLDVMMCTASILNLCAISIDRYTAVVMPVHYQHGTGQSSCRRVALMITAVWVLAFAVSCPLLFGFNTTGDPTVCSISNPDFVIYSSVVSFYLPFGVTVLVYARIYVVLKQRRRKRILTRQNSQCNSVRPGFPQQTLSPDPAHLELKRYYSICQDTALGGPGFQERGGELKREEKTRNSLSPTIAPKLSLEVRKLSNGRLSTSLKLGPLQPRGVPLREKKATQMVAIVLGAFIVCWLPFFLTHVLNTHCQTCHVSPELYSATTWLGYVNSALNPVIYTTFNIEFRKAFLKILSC"}, "[3]": {"target": "T1, D3 dopamine receptor", "settings": "D3 versus D2 or D4"}},
  "note": "Counter-ions that a name gives are not always drawn.",
  "data": [
    {"smiles": "CCCN(CCC)CCc1cccc2c1CC(=O)N2", "note": "[Ropinirole hydrochloride]", "values": [
      {"measurement": "intrinsic activity at D2 dopamine receptor subtype", "setting": "[1]", "value": "full intrinsic activity"},
      {"measurement": "intrinsic activity at D3 dopamine receptor subtype", "setting": "[2]", "value": "full intrinsic activity"},
      {"measurement": "affinity for D3 relative to D2 or D4 receptor subtypes", "setting": "[3]", "value": "higher affinity to D3 than to D2 or D4"}
    ]}
  ]
}
